From US7893256B2, “Azabicycloalkane compounds” (Theravance, Inc., priority 2003, dated 2011)
pKi: −log10 of the molar value.

Biological target: T1, human β2 adrenergic receptor (Homo sapiens, UniProt P07550)
T1 construct: expressed in transfected cells; membranes
Test: Radioligand binding assay for human β2 adrenergic receptor (Assay Test Procedure A)
Procedure: Chinese hamster ovarian (CHO) cell lines stably expressing cloned human β1, β2 or β3 adrenergic receptors, respectively, were grown to near confluency in Hams F-12 media with 10% FBS in the presence of 500 μg/mL Geneticin. The cell monolayer was lifted with 2 mM EDTA in PBS. Cells were pelleted by centrifugation at 1,000 rpm, and cell pellets were either stored frozen at −80° C. or membranes were prepared immediately for use. For preparation of β1 and β2 receptor expressing membranes, cell pellets were re-suspended in lysis buffer (10 mM HEPES/HCl, 10 mM EDTA, pH 7.4 at 4° C.) and homogenized using a tight-fitting Dounce glass homogenizer (30 strokes) on ice. […] The protein concentration of the membrane suspension was determined by the methods described in Lowry et al., 1951, Journal of Biological Chemistry, 193, 265; and Bradford, Analytical Biochemistry, 1976, 72, 248-54. […]
Binding assays were performed in 96-well microtiter plates in a total assay volume of 100 μL with 10-15 μg of membrane protein containing the human β1, β2 or β3 adrenergic receptors in assay buffer (75 mM Tris/HCl pH 7.4 at 25° C., 12.5 mM MgCl2, 1 mM EDTA, 0.2% BSA). […] Non-specific binding was determined in the presence of 10 μM propranolol. […] Filter plates were washed three times with filtration buffer (75 mM Tris/HCl pH 7.4 at 4° C., 12.5 mM MgCl2, 1 mM EDTA) to remove unbound radioactivity. […]

T1 sequence (P07550 whole entry): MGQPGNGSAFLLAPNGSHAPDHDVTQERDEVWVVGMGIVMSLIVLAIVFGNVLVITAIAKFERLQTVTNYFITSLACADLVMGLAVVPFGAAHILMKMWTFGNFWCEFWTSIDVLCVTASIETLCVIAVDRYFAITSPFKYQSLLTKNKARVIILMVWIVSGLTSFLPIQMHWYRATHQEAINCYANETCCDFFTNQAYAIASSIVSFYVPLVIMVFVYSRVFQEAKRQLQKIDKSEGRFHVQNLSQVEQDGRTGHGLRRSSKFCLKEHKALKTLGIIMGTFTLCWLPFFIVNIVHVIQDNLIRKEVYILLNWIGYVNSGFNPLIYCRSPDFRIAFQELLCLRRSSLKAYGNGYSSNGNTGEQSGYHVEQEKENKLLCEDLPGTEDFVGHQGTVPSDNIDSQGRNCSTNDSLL

With `C[N+]1(CCCCCCCCCNC[C@H](O)c2ccc(O)c3[nH]c(=O)ccc23)C2CC(OC(=O)C(O)(c3cccs3)c3cccs3)CC1C1OC12.C[N+]1(CCCCCCCCCNC[C@H](O)c2ccc(O)c3[nH]c(=O)ccc23)C2CC(OC(=O)C(O)(c3cccs3)c3cccs3)CC1C1OC12.O=C([O-])C(F)(F)F.O=C([O-])C(F)(F)F` (stereo partly drawn) [Example 1, 7-(2-Hydroxy-2,2-dithiophen-2-ylacetoxy)-9-{9-[(R)-2-hydroxy-2-(8-hydroxy-2-oxo-1,2-dihydroquinolin-5-yl)ethylamino]nonyl}-9-methyl-3-oxa-9-azonia-tricyclo[3.3.1.0^2,4]nonane Ditrifluoroacetate] the pKi (radioligand displacement, CHO cell membranes, [3H]-dihydroalprenolol) was > 7.30 and the “ratio of Ki(β1)/Ki(β2)” value (receptor subtype selectivity, binding, β2 over β1) was “greater than 5”.
